Experimental data reported in patent publication EP0956028B1, “[…] INHIBITION OF […] GROWTH” (Purdue Research Foundation, priority 1996, dated 1998).

Test system: A549 human lung carcinoma cells
Assay: Tumor cell proliferation (cell count), indirect co-culture with submucosal tissue membrane
Type: cell-based
Procedure: Carcinoma ceil lines including A549 (human lung adenocarcinoma), MCF-7 (human breast carcinoma) and human colorectal carcinoma cell lines were obtained from American Type Cell Culture (ATCC). Cell cultures were routinely performed at 37°C in an incubator supplemented with 5% CO2 and 95% air. Media used were F-12 pius 10° o FBS (fetal bovine serum) (Gibco BRL) for the A549 cells and RPMI plus 10% FBS (Gibco BRL) for both the MCF-7 and colonic carcinoma cell lines. The inhibition of tumor cell growth on several different forms of submucosal tissue including PA-ST (submucosal tissue sterilized in peracetic acid), Native submucosal tissue (no further treatment after dissection), Gamma irradiated submucosal tissue and solubilized submucosal tissue was assessed.
Cancer cells were cultured in the presence of various forms of intestinal submucosal tissue at 37°C in an incubator supplemented with 5% CO2 and 95% air using the following procedures: • 1. Direct Contact: Intestinal submucosal tissue and the cultured cells physically contact one another. • 2. Indirect Contact: Intestinal submucosal tissue and the cultured cells are separated by a stainless steel mesh. • 3. Solubilized intestinal submucosal tissue added to the culture media. • 4. Cells are cultured on solubilized intestinal submucosa coated culture plate. The coating was applied by placing 1 ml of solubilized intestinal submucosal tissue in a 35mm culture plate, heating at 37°C for 2 hours, removing the excess intestinal submucosal tissue fluid by aspiration and washing the coated plates once with culture media.
• 1. […]
Tumor cells were plated at a cell density of approximately 5x10^5 cells/dish of 60 mm tissue culture dishes and grown until they reached about 50% confluence. Cell cultures were then subjected to the following treatments in triplicates: 1) control, cells grown in media only; 2) addition of different quantities of solubilized submucosal tissue (200-800 µl); 3) co-culture with submucosal tissue membranes of different sizes (indirect co-culture). […]

CC(=O)OO [Peracidic Acid, peracetic acid]
Cell Count (x10^5) (day 2 of treatment) (100 µl of Peracidic Acid, A549): 18.81 ± 2.59 x10^5 | % of Control (100 µl of Peracidic Acid, A549 cell count, day 2 of treatment): 97% | inhibitory effect on cell proliferation (added exogenously to tumor cells): no significant inhibitory effect
